# In PMC4667271, “Discovery of a Novel Inhibitor of the Protein Tyrosine Phosphatase Shp2” (Scientific Reports, 2015):
# Legend:
# [1] = system: HeLa cells; assay: Transwell invasion assay, HeLa; assay type: cell-based, human; settings: 4 and 14 μM, 24 h, EGF in lower chamber
# Description: (§1) The invasion assay was performed in Transwell chambers according to Corning methods. Briefly, the upper chamber of a Transwell insert ([…] pore size) was coated with 40 μl 1:6 mixture of Matrigel (BD Biosciences, Bedford): Opti-MEM (Invitrogen) for MDA-MB-231 and 40 μl 1:12 mixture of Matrigel: Opti-MEM (Invitrogen) for HeLa cells and dried for 2 h at 37 °C. The lower chamber was filled with serum-free media containing 10 ng/ml EGF. Cells were seeded into upper chamber at a density 5 × 10^4 cells/ml per well in serum-free media. Cells were treated with series concentrations of Fumos for 24 h. The top aspect of the membrane was gently swabbed the inside of each insert using cotton swabs, and cells that invaded on the lower surface of the membrane were fixed using methanol and stained with crystal violet (Beyotime Institute of Biotechnology). Random fields were counted and photographed by microscope (Olympus).
# [2] = system: MDA-MB-231 cells; assay: Transwell invasion assay, MDA-MB-231; assay type: cell-based, human; settings: 4 and 14 μM, 24 h, EGF in lower chamber
# Description: as §1
# [3] = system: Src and Paxillin phosphorylation in MDA-MB-231 cells; assay: Src, PLCγ1 and Paxillin phosphorylation, Western blot, MDA-MB-231; assay type: cell-based, human; settings: 10-40 μM 24 h, EGF
# Source text: Figure 6 Fumos affects the phosphorylation of Src and Paxillin. […] DMSO treatment as control. Western blotting analysis for the expression of p-Src(Tyr416) p-Src (Tyr530), Src, p-PLCγ1, PLCγ1, p-Paxillin(Tyr118), p-Paxillin (Tyr31) and Paxillin. (b,c) Densitometric analysis of pSrc530/Src in the Western blots of Hela and MDA-MB-231, respectively. Bars represent mean ± S.E.M. values from three experiments, **p = 0.006 < 0.01/F = 8 vs EGF, one-way ANOVA followed by Tukey’s test.
# (§2) After centrifugation, the supernatant was collected.
# [4] = system: EGF-induced Ras activation in HeLa cells; assay: Ras activation assay (GST-RBD pull-down), HeLa; assay type: cell-based, human; settings: Fumos 20 μM
# Description: Active Ras was detected by use of the RBD of raf-1 fused to glutathione S-transferase (GST) as described previously. Cells were lysed in MLB buffer (25 mM Hepes, 150 mM NaCl, 1% Nonidet P-40, 0.25% sodium deoxycholate, 10% glycerol, 25 mM NaF, 1 mM Na3VO4, 10 mM MgCl2, 1 mM EDTA, pH 7.5) supplemented with complete EDTA-free protease inhibitor mixture. Total 500 μg cell lysate was incubated with 10–20 μg of GST-RBD bound beads(Merck) overnight at 4 °C. The beads were pelleted by centrifugation and washed three times with MLB buffer. The beads were boiled in SDS loading buffer and subjected to electrophoresis, followed by immunoblotting with an anti-Ras antibody (Santa Cruz Biotechnology).
# [5] = system: ERK1/2 activation in HEK293T cells expressing H-RasV12; assay: RasV12-induced ERK1/2 activation in transfected HEK293T; assay type: cell-based, human; settings: Fumos 20 μM or U0126 10 μM, 24 h
# Description: DMSO treatment as control. […] (c) Fumos inhibits EGF-induced Ras activation.
# HEK293T, MDA-MB-231and HeLa cell lines were obtained from CRC/PUMC. Cell lines were maintained in Dulbecco’s modified Eagle’s medium supplemented with 10% fetal bovine serum. Transfections were performed in 6-well plates according to manufacturer (Invitrogen Lipofectamine LTX).Briefly, for transient transfection of HEK293T cells, subconfluent cells in 6-well plates were incubated with 2 ml of Dulbecco’s modified Eagle’s medium containing 2.5 μg of total DNA and 7.5 μl of each Lipofectamine and Plus reagent (Invitrogen) and then serum-starved in DMEM/0.1% bovine serum albumin for 18 h. After Fumos treatment for 24 h, cells were stimulated for 5 min with 20 ng/ml EGF.
# as §2
# [6] = target: SHP1 (Homo sapiens, UniProt P29350); assay: in vitro PTP assay (pNPP), SHP1; assay type: biochemical
# SHP1, sequence (P29350 244-515 limits assumed): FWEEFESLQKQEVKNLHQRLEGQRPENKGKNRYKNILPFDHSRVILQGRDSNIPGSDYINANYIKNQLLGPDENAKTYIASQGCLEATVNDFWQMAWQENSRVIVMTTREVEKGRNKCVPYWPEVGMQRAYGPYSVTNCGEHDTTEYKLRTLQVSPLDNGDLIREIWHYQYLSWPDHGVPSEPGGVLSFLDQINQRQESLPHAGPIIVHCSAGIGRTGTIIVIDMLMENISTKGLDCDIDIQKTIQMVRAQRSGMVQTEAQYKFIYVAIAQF
# Description: Plasmids for expression of His-tag fusion proteins of human PTP were constructed in PET-28a by PCR subcloning techniques. The constructions contain only the PTP domain except Full-length Shp2. Full-length Shp2 containing Tyr279-to-Ala mutant was generated by PCR-based mutagenesis. All constructs were verified by DNA sequencing. PTP-His fusion proteins were expressed in Escherichia coli BL21 and lysed in the buffer (50 mM NaH2PO4, 300 mM NaCl, 250 mM imidazole, 1 mM dithiothreitol plus 5% glycerol), purified with Ni-NTA Magnetic Agarose Beads (Qiagen). The His-tag recombinant purification protocol was carried out according to the purification under native conditions of the QIAexpress System.
# The assay was set in wells of 96-well plate with a final volume of 100 μl of reaction mixture containing 10 mM of NaAc-HAc, 1 mM of ethylene diamine tetraacetic acid, 1 mM of DL-dithiothreitol and 2% of dimethyl sulfoxide, pH 5.5. Activity of the enzyme was assayed by incubating recombinant PTP protein or mutant PTP with various concentrations of Fumos in the mixture at 37 °C for 30 min. Absorbance at 405 nm was detected immediately after addition of varied concentrations of substrate, p-nitrophenyl phosphate (pNPP) to each corresponding well.
structure (smiles),measurement,setting,value
"CC[C@@H](C)C[C@@H](C)/C=C(C)/C=C/C=C/C=C(\C)C(=O)c1c(O)c(-c2ccc(O)cc2)cn(O)c1=O [Fumos, Fumosorinone]",cell invasion (Transwell),[1],significantly inhibited
same,cell invasion (Transwell),[2],significantly inhibited
same,Src Tyr416 phosphorylation,[3],dose-dependent downregulation
same,phosphorylated Tyr 530 of Src,[3],moderately increased
same,phosphorylation of PLCγ1,[3],decreased
same,phosphorylation of Paxillin at Tyr31,[3],peaked at low concentrations of Fumos and reduced at high concentrations
same,phosphorylation of Paxillin at Tyr118,[3],decreased with the increasing concentrations
same,EGF-induced endogenous Ras activation,[4],inhibited
same,RasV12-induced ERK1/2 activation,[5],did not inhibit
same,IC50,[6]; SHP1 PTP domain,34.7 ± 0.37 µM
same,IC50 selective,[6]; SHP1 relative to Shp2 PTP domain,~6
